The test system of test [1] is benzodiazepine receptor. Put plainly: in vivo benzodiazepine receptor binding (3H-flunitrazepam binding in brain). The note with it: mouse. Here is the method:
In vivo benzodiazepine receptor binding is determined essentially as described in Eur. J. Pharmacol. 48, 213 (1978) and Nature 275, 551 (1978). Test compounds in a corn starch vehicle are administered orally or intraperitoneally to mice or rats. A decrease in the binding of ^3 H-flunitrazepam in the brain of drug-treated animals (as compared with the binding observed in animals treated with vehicle alone) is indicative of benzodiazepine receptor binding by the test compound.

For test [2], the target named is benzodiazepine receptor. Nature of the test: in vitro benzodiazepine receptor binding assay, tritiated flunitrazepam as radioactive ligand. The note with it: 0.5 nM tritiated flunitrazepam; read-out: IC50, concentration required to inhibit the specific binding of tritiated flunitrazepam by 50%. Here is the method: The benzodiazepine receptor binding properties indicative of the nervous system regulatory activity of said new compounds are determined in the receptor binding assay in vitro, e.g. similarly to that in Nature 266, 732 (1977) or Proc. Nat. Acad. Sci. USA 74, 3805 (1977), using tritiated flunitrazepam as the radioactive ligand. The concentration of the compounds of this invention, required to inhibit the specific binding of 0.5 nM of tritiated flunitrazepam by 50%, i.e. the IC50, is determined graphically.

For test [3], the system named is rat. Nature of the test: Metrazole (pentylenetetrazole) test for anticonvulsant activity. In kind it is in vivo. Conditions: po. The text has this:
Anticonvulsant effects are observed, for example in the standard Metrazole (pentylenetetrazole) test for assessing anticonvulsant activity, e.g. orally in the rat as described in U.S. Pat. No. 4,479,955.

By ED50 is commonly meant the midpoint of the dose-response relation. Read a low ED50 as greater potency. On to `Cl.c1ccc(-c2nnc3n2-c2ccccc2Cn2cccc2-3)nc1` [Example 1, 3-(2-Pyridinyl)-9H-pyrrolo[2,1-c]-1,2,4-triazolo[4,3-a][1,4]benzodiazepine Hydrochloride], for which the “inhibition of flunitrazepam binding in vivo” value (“inhibition” below) in test [1] (30 mg/kg p.o.) is “about 67%”. The IC50 in test [2] is around 4 nM. The same molecule displayed an ED50 in test [3] of around 3 mg/kg.
With `Cl.FC(F)(F)c1ccc2c(c1)-n1c(-c3ccccn3)nnc1-c1cccn1C2` [Example 4, 6-Trifluoromethyl-3-(2-pyridinyl)-9H-pyrrolo[2,1-c]-1,2,4-triazolo[4,3-a][1,4]benzodiazepine Hydrochloride], the “inhibition” value in test [1] (0.6 mg/kg p.o.) is around 50%. The IC50 in test [2] is around 0.4 nM.
`Cl.Clc1ccc2c(c1)-n1c(-c3ccccn3)nnc1-c1cccn1C2` [Example 3, 6-Chloro-3-(2-pyridinyl)-9H-pyrrolo[2,1-c]-1,2,4-triazolo[4,3-a][1,4]benzodiazepine Hydrochloride]: in test [1] (5.3 mg/kg p.o.), the “inhibition” value is recorded as around 50%. Also, the IC50 in test [2] is around 0.7 nM.
`COc1cc2c(cc1OC)-n1c(-c3ccccn3)nnc1-c1cccn1C2.Cl` [Example 7f, 6,7-dimethoxy-3-(2-pyridinyl)-9H-pyrrolo[2,1-c]-1,2,4-triazolo[4,3-a][1,4]benzodiazepine hydrochloride]: in test [1] (30 mg/kg p.o.), the “inhibition” value is given as around 75%. The IC50 in test [2] is around 1 nM.

(Values after patent US4596799A, “9H-pyrrolo[2,1-c]-1,2,4-triazolo[4,3-a][1,4]benzodiazepines” (Ciba-Geigy Corporation, priority 1985, dated 1986).)
